From ChEMBL document CHEMBL1201862, “PubChem BioAssay data set” (2004)
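Exposure lasted 48 hours, with cells grown in 96-well plates and compounds tested at five concentrations. GI50: concentration for 50% inhibition of growth.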 Calls of active or inactive are those of the source. Cut-off read from the data, not from the text of the source: active = GI50 up to about 1.1 µM and inactive = higher.

Tests used:
Assay in all cases: growth of human tumour cells (NCI), 48 h
SN12C = tested on: SN12C
A498 = tested on: A498
SF-539 = tested on: SF-539
RXF 393 = tested on: RXF 393
SF-268 = tested on: SF-268
SNB-19 = tested on: SNB-19
TK-10 = tested on: TK-10
ACHN = tested on: ACHN
OVCAR-5 = tested on: OVCAR-5
M14 = tested on: M14
A549 = tested on: A549
CAKI-1 = tested on: CAKI-1
IGROV-1 = tested on: IGROV-1
SF-295 = tested on: SF-295
HCT-116 = tested on: HCT-116
U-251 = tested on: U-251
NCI-H226 = tested on: NCI-H226
MDA-MB-231 = tested on: MDA-MB-231
SNB-75 = tested on: SNB-75
HT-29 = tested on: HT-29
HCT-15 = tested on: HCT-15
OVCAR-3 = tested on: OVCAR-3
DU-145 = tested on: DU-145
OVCAR-4 = tested on: OVCAR-4
MDA-MB-435 = tested on: MDA-MB-435
SK-MEL-5 = tested on: SK-MEL-5
SW-620 = tested on: SW-620
COLO 205 = tested on: COLO 205
HOP-92 = tested on: HOP-92
NCI/ADR-RES = tested on: NCI/ADR-RES
UO-31 = tested on: UO-31
PC-3 = tested on: PC-3
KM12 = tested on: KM12
MDA-N = tested on: MDA-N
OVCAR-8 = tested on: OVCAR-8
NCI-H23 = tested on: NCI-H23
EKVX = tested on: EKVX
K562 = tested on: K562
SR = tested on: SR
HL-60 = tested on: HL-60
CCRF-CEM = tested on: CCRF-CEM
HOP-62 = tested on: HOP-62
Hs-578T = tested on: Hs-578T
SK-MEL-28 = tested on: SK-MEL-28
LOX IMVI = tested on: LOX IMVI
NCI-H460 = tested on: NCI-H460
UACC-62 = tested on: UACC-62
NCI-H522 = tested on: NCI-H522
UACC-257 = tested on: UACC-257
MOLT-4 = tested on: MOLT-4
RPMI-8226 = tested on: RPMI-8226
SK-OV-3 = tested on: SK-OV-3
786-0 = tested on: 786-0
SK-MEL-2 = tested on: SK-MEL-2
Malme-3M = tested on: Malme-3M
MCF7 = tested on: MCF7
HCC 2998 = tested on: HCC 2998

Measured: GI50

CC1(C)CC(=O)C(C(CC(c2ccccc2)c2cc3c(cc2O)OCO3)C2=C(O)CC(C)(C)CC2=O)=C(O)C1 (stereo not given)
inactive: SN12C > 10 µM | A498 > 10 µM | SF-539 > 10 µM | RXF 393 > 10 µM | SF-268 > 10 µM | SNB-19 > 10 µM | TK-10 > 10 µM | ACHN > 10 µM | OVCAR-5 > 10 µM | M14 > 10 µM | A549 > 10 µM | CAKI-1 > 10 µM | IGROV-1 > 10 µM | SF-295 > 10 µM | HCT-116 > 10 µM | U-251 > 10 µM | NCI-H226 > 10 µM | MDA-MB-231 > 10 µM | SNB-75 > 10 µM | HT-29 > 10 µM | OVCAR-3 > 10 µM | DU-145 > 10 µM | OVCAR-4 > 10 µM | MDA-MB-435 > 10 µM | SK-MEL-5 > 10 µM | SW-620 > 10 µM | COLO 205 > 10 µM | HOP-92 > 10 µM | NCI/ADR-RES > 10 µM | UO-31 > 10 µM | PC-3 > 10 µM | KM12 > 10 µM | MDA-N > 10 µM | OVCAR-8 > 10 µM | NCI-H23 > 10 µM | EKVX > 10 µM
> 10 µM: HCT-15

COC(=O)C1=CC(NC(=O)OCc2ccccc2)C(C(=O)c2ccccc2)C[C@@H]1Sc1ccccc1 (stereo not given in full)
inactive: K562 2.19 µM | CCRF-CEM 1.47 µM
active: SR < 0.01 µM | HL-60 1.09 µM

CCOC(=O)C1(C(=O)OCC)C[C@H](C)[C@](C)(O)C1
inactive: HOP-62 > 100 µM | SN12C > 100 µM | A498 > 100 µM | SF-539 > 100 µM | Hs-578T > 100 µM | RXF 393 > 100 µM | SF-268 > 100 µM | SNB-19 > 100 µM | TK-10 > 100 µM | SK-MEL-28 > 100 µM | K562 > 100 µM | LOX IMVI > 100 µM | ACHN > 100 µM | OVCAR-5 > 100 µM | NCI-H460 > 100 µM | M14 > 100 µM | UACC-62 > 100 µM | A549 > 100 µM | CAKI-1 > 100 µM | IGROV-1 > 100 µM | NCI-H522 > 100 µM | SF-295 > 100 µM | HCT-116 > 100 µM | UACC-257 > 100 µM | U-251 > 100 µM | NCI-H226 > 100 µM | MDA-MB-231 > 100 µM | MOLT-4 > 100 µM | SR > 100 µM | SNB-75 > 100 µM | HT-29 > 100 µM | OVCAR-3 > 100 µM | DU-145 > 100 µM | OVCAR-4 > 100 µM | MDA-MB-435 > 100 µM | SK-MEL-5 > 100 µM | SW-620 > 100 µM | COLO 205 > 100 µM | RPMI-8226 > 100 µM | HL-60 37.8 µM | CCRF-CEM > 100 µM | HOP-92 > 100 µM | NCI/ADR-RES > 100 µM | SK-OV-3 > 100 µM | UO-31 > 100 µM | PC-3 > 100 µM | KM12 > 100 µM | MDA-N > 100 µM | OVCAR-8 > 100 µM | 786-0 > 100 µM | SK-MEL-2 > 100 µM | NCI-H23 > 100 µM | Malme-3M > 100 µM | EKVX > 100 µM | MCF7 > 100 µM
> 100 µM: HCT-15

C=C(C)C(=O)[C@@]12C(=O)[C@@H](C)CC[C@H]1[C@H](C)C[C@@H]2C=C(C)C
19.9 µM: HCT-15
inactive: HOP-62 34.4 µM | SN12C 20.8 µM | A498 52.4 µM | SF-539 19.9 µM | SF-268 17.2 µM | SNB-19 12.6 µM | TK-10 47.6 µM | SK-MEL-28 34 µM | K562 29.6 µM | LOX IMVI 18.7 µM | ACHN 12.9 µM | OVCAR-5 28.4 µM | M14 55.6 µM | UACC-62 22.9 µM | A549 32.7 µM | CAKI-1 29.4 µM | IGROV-1 27.5 µM | NCI-H522 14.6 µM | SF-295 33.9 µM | HCT-116 14.9 µM | UACC-257 15.2 µM | U-251 23.6 µM | MDA-MB-231 21.9 µM | MOLT-4 15.8 µM | SR > 10 µM | SNB-75 34.8 µM | HT-29 14.6 µM | OVCAR-3 19.5 µM | DU-145 38.4 µM | OVCAR-4 28.8 µM | MDA-MB-435 20.3 µM | SK-MEL-5 19.4 µM | SW-620 20.2 µM | COLO 205 18.8 µM | RPMI-8226 27.9 µM | CCRF-CEM 23.1 µM | HOP-92 25.8 µM | NCI/ADR-RES 27.8 µM | SK-OV-3 37 µM | UO-31 20.2 µM | PC-3 24 µM | KM12 23.9 µM | MDA-N 24.1 µM | OVCAR-8 30.7 µM | 786-0 20.1 µM | SK-MEL-2 13.8 µM | NCI-H23 15.4 µM | Malme-3M 18 µM | HCC 2998 14.8 µM | EKVX 30.5 µM | MCF7 23.9 µM
active: NCI-H226 < 0.01 µM
